Patent US10494380B2, “Nitrogen-containing tricyclic derivatives having HIV replication inhibitory activity” (priority 2015, dated 2019)
Like-named read-outs stand apart in the source and are kept apart here.

Tests used:
Assay type in all cases: cell-based
HIV (HTLV-IIIB strain) = assay: HIV replication inhibition assay (Test Example 1; MT-4 cells, MTT); conditions: MT-4 cells, MTT; for EC50: read-out: EC50; for EC90: read-out: EC90
Method: HIV (HTLV-IIIB strain) persistent infected human T cell strain Molt-4 clone8 was cultured in RPMI-1640 medium supplemented with 10% fetal bovine serum and the supernatant was filtered, then the virus titer was measured and stored at −80° C. Each anti-human immunodeficiency virus active substance was diluted with the above culture medium to the designated concentration, which was dispensed into 96-well microtiter plate by 50 μL. Next, 100 μL of MT-4 cell suspension (2.5×10^4 cells) was dispensed into each well, then 50 μl of the above HIV-containing supernatant diluted with the above culture medium was added thereto (60 pfu (plaque forming unit)).
Cell mixture was cultured at 37° C. in CO2 incubator for four days, then 30 μL of MTT (3-(4,5-dimethylthiazole-2-yl)-2,5-diphenyltetrazolyum bromide) reagent (5 mg/mL in PBS) was added to all wells followed by incubation for 1 hour. In this step, MTT was reduced to insoluble formazan in living cells. To elute generated formazan 150 μL of the culture supernatant was removed from all wells, then 150 μL of cell lysis solution (10% Triton X-100 and 0.4% (v/v)-HCl containing isopropanol) was added thereto, followed by shaking with a plate mixer. The formazan was measured with micro plate reader at OD: 560 nm and 690 nm (reference wavelength) and the result was compared with the reference wells. EC50 and EC90 mean the compound concentration at which cytotoxicity caused by virus infection is inhibited 50% and 90%, respectively.

[1] = system: T125A mutant virus (HIV-1 NL-432 recombinant molecular clone, IN gene); assay: HIV replication inhibition assay against integrase 124/125 mutant virus (Test Example 2)
How it was run: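 EC50 is the compound concentration blocking half of virus-induced cell death, measured by MTT (OD 560 nm, 690 nm reference) after 4 days at 37 °C. Integrase 124/125 mutant NL-432 virus from transfected 293T cells (60 pfu) was added to 2.5×10^4 MT-4 cells with compound.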

HIV = conditions: EC50 in the presence of human serum (25%) versus without human serum, MT-4 cells
How it was run: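 HIV-infected MT-4 cells (3×10^4/well, infected 1 h at 37° C) are grown 4 days with compound that was first mixed 1 h with human serum or with medium only. Potency shift is the EC50 with serum divided by the EC50 without serum.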

[2] = system: sheep red blood cells (RBC); assay: Photohemolysis test (Test Example 13); conditions: 0.0008 to 0.1 w/v %, 10 J/cm2 UV-irradiation (290-400 nm)
Source text: Aliquots of sheep red blood cells (RBC) suspension prepared with medium to make a 2.5 v/v % concentration are dispensed into microplates. The compound of the present invention was desolved with a vehicle to make target concentrations and then these solutions were immediately added (in concentrations of 0.0008 to 0.1 w/v %) into the microplates. The mixtures on the microplates were exposed to 10 J/cm2 of UV-irradiation (UV-A and UV-B, 290-400 nm) with a GL20SE lamp (SANKYO DENKI) and a FL20S-BLB lamp (Panasonic). After the UV-irradiation, the mixtures were centrifuged. Aliquots of supernatant were transferred to a microplate. Absorbance of the supernatants was measured at 540 nm and 630 nm for judgement of the potential of phototoxicity. In the study, two endpoints were evaluated in biomembrane impairment (% of photohemolysis index; PI) and hyperoxidation of lipid membrane (methemoglobin formation; met-Hb) with the absorbance at 540 nm and 630 nm, respectively. PI and met-Hb were assessed based on the negative criteria (−), PI<10% and changes in absorbance at 630 nm<0.05, respectively. All else was judged as positive (+).

[3] = HIV (HTLV-IIIB strain), four days
[4] = T125A mutant virus (HIV-1 NL-432 IN gene), MT-4 cells, MTT, read-out: EC50 against T125A mutant virus
[5] = Human immunodeficiency virus 1, MT4, 96 h, HIV (HTLV-IIIB strain), four days
[6] = Human immunodeficiency virus 1, MT4, read-out: EC50 against T125A mutant virus, T125A mutant virus (HIV-1 NL-432 IN gene), MT-4 cells, MTT
[7] = Human immunodeficiency virus 1, MT4, 96 h, HIV HTLV-IIIB strain, cultured four days

| SMILES | EC50 (HIV (HTLV-IIIB strain); [3]) | EC90 (HIV (HTLV-IIIB strain); [3]) | EC50 [1, 4] | Potency shift value (HIV) | Photohemolysis test, potential of phototoxicity (PI and met-Hb) [2] | EC50 (HIV (HTLV-IIIB strain); [5]) | EC90 (HIV (HTLV-IIIB strain); [5]) | EC50 [1, 6] | EC50 (HIV (HTLV-IIIB strain); [7]) |
| --- | --- | --- | --- | --- | --- | --- | --- | --- | --- |
| Cc1c([C@H](OC(C)(C)C)C(=O)O)c(-c2ccc(Cl)cc2)c2cc(C)n3c2c1N(c1ncccn1)CC3 [Compound I-085] | 0.54 nM | 0.58 nM | 3.7 nM | 22 | (−) (negative criteria (−), PI<10% and changes in absorbance at 630 nm<0.05, respectively) | – | – | – | – |
| COc1cnc(N2CCn3c(C)cc4c(-c5ccc(C)cc5)c([C@H](OC(C)(C)C)C(=O)O)c(Cl)c2c43)nc1 [Compound I-226] | 1.2 nM | 1.6 nM | 3.6 nM | 26 | – | – | – | – | – |
| Cc1c([C@H](OC(C)(C)C)C(=O)O)c(-c2ccc(Cl)cc2)c2cc(C)n3c2c1N(C(=O)CN(C)C)CC3 [Compound I-017] | – | – | – | 4.5 | – | 20 nM | 31 nM | 94 nM | – |
| Cc1ccc(-c2c([C@H](OC(C)(C)C)C(=O)O)c(C)c3c4c2cc(C(F)F)n4CCN3C)cc1 [Compound I-024] | – | – | – | 22 | – | 1.6 nM | 2.1 nM | 7.7 nM | – |
| Cc1c([C@H](OC(C)(C)C)C(=O)O)c(-c2ccc(Cl)cc2)c2cc(C)n3c2c1N1C(=O)OCC[C@@H]1C3 [Compound I-167] | – | – | – | 4.1 | – | – | 18 nM | 49 nM | 7.6 nM |
| CCS(=O)(=O)N1CCn2c(C)cc3c(-c4ccc(Cl)cc4)c([C@H](OC(C)(C)C)C(=O)O)c(C)c1c32 [Compound I-023] | – | – | – | 12 | – | 1 nM | 2.6 nM | 5.5 nM | – |
| Cc1ccc(-c2c([C@H](OC(C)(C)C)C(=O)O)c(C)c3c4c2cc(C)n4CCN3c2ncc(C)cn2)cc1 [Compound I-235] | – | – | – | 46 | – | 1.6 nM | – | 2.8 nM | – |
| Cc1ccc(-c2c([C@H](OC(C)(C)C)C(=O)O)c(C)c3c4c2cc(C)n4CCN3c2ncc(N3CCOCC3)cn2)cc1 [Compound I-272] | – | – | – | 16 | – | 1.6 nM | 2 nM | 4.3 nM | – |
| Cc1ccc(-c2c([C@H](OC(C)(C)C)C(=O)O)c(C)c3c4c2cc(C)n4CCN3c2ncc(OCF)cn2)cc1 [Compound I-282] | – | – | – | 36 | – | 1.4 nM | 2.1 nM | 4 nM | – |
| Cc1ccc(-c2c([C@H](OC(C)(C)C)C(=O)O)c(C)c3c4c2cc(C)n4CCN3c2ncc(OCC3COC3)cn2)cc1 [Compound I-268] | – | – | – | 19 | – | 1.5 nM | 2.1 nM | 4.8 nM | – |
| Cc1ccc(-c2c([C@H](OC(C)(C)C)C(=O)O)c(C)c3c4c2cc(C)n4CCN3c2ncc(C3CCN(C)CC3)cn2)cc1 [Compound I-213] | 12 nM | 19 nM | 31 nM | 3.9 | – | – | – | – | – |
| Cc1c([C@H](OC(C)(C)C)C(=O)O)c(-c2ccc(F)cc2)c2cc(C)n3c2c1N(CCN(C)C)CC3 [Compound I-171] | – | – | – | 1.4 | – | – | 24 nM | 62 nM | 15 nM |
| Cc1ccc(-c2c([C@H](OC(C)(C)C)C(=O)O)c(C)c3c4c2cc(C)n4CCN3CCN2CCCO2)cc1 [Compound I-170] | – | – | – | 3.5 | – | – | 5.2 nM | 18 nM | 3.1 nM |
| Cc1ccc(-c2c([C@H](OC(C)(C)C)C(=O)O)c(C)c3c4c2cc(C)n4CCN3c2ncc(O[C@@H]3CCN(C)C3)cn2)cc1 [Compound I-279] | – | – | – | 3.5 | – | 5.1 nM | 7.7 nM | 13 nM | – |
| CC(=O)N1CCn2c(C)cc3c(-c4ccc(C)cc4)c([C@H](OC(C)(C)C)C(=O)O)c(C)c1c32 [Compound I-014] | – | – | – | 8.7 | – | 1.6 nM | 2.2 nM | 15 nM | – |
| Cc1ccc(-c2c([C@H](OC(C)(C)C)C(=O)O)c(C)c3c4c2cc(C)n4CCN3c2ncc(N3CCN(C)CC3)cn2)cc1 [Compound I-204] | 4.1 nM | 5.8 nM | 9.5 nM | 3.6 | – | – | – | – | – |
| Cc1c([C@H](OC(C)(C)C)C(=O)O)c(-c2ccc(Cl)cc2)c2cc(C)n3c2c1N(c1ncc(OCCO)cn1)CC3 [Compound I-254] | – | – | – | 10 | – | 7.9 nM | 13 nM | 17 nM | – |
| COc1cnc(N2CCn3c(C)cc4c(-c5ccc(C)cc5O)c([C@H](OC(C)(C)C)C(=O)O)c(C)c2c43)nc1 [Compound I-205] | 16 nM | 35 nM | 63 nM | 32 | – | – | – | – | – |
| Cc1ccc(-c2c([C@H](OC(C)(C)C)C(=O)O)c(C)c3c4c2cc(C)n4CCN3CCO)cc1 [Compound I-021] | – | – | – | 5.4 | – | 5.2 nM | 7.5 nM | 22 nM | – |
| Cc1ccc(-c2c([C@H](OC(C)(C)C)C(=O)O)c(C)c3c4c2cc(C)n4CCN3c2ncc(OCCN3CCOCC3)cn2)cc1 [Compound I-276] | – | – | – | 5.9 | – | 1.5 nM | 2.5 nM | 5.1 nM | – |
| Cc1ccc(-c2c([C@H](OC(C)(C)C)C(=O)O)c(C)c3c4c2cc(C(F)(F)F)n4CCN3C)cc1 [Compound I-007] | – | – | – | 49 | – | 2 nM | 3.6 nM | 18 nM | – |
| Cc1ccc(-c2c([C@H](OC(C)(C)C)C(=O)O)c(C)c3c4c2cc(C)n4CCN3CCN2C3CCC2COC3)cc1 [Compound I-172] | – | – | – | 2.3 | – | – | 5.4 nM | 16 nM | 3.5 nM |
| CC(=O)N1CCn2c(C)cc3c(-c4ccc(Cl)cc4)c([C@H](OC(C)(C)C)C(=O)O)c(C)c1c32 [Compound I-025] | – | – | – | 11 | – | 2.3 nM | 3.1 nM | 13 nM | – |
| Cc1ccc(-c2c([C@H](OC(C)(C)C)C(=O)O)c(C)c3c4c2cc(C)n4CCN3c2ccc(C)nn2)cc1 [Compound I-287] | – | – | – | 12 | – | 1.4 nM | 2.2 nM | 5.1 nM | – |
